Laboratory results from patent US20080153822A1, “Methods of treating pain” (priority 2006, published 2008).

What was measured:
CDKs = settings: Current Opinion in Pharmacology, 2003(3): 362-370; cited from earlier work
TNF α = assay: In vitro human whole blood assay (cytokine inhibition); type: cell-based; settings: for TNF α levels reduced: human whole blood
Experimental: […]. For this purpose, human heparinised whole blood from healthy donors was diluted 1:5 with medium (RPMI 1640, e.g. ATCC #30-2001, supplemented with 4.5 g/L glucose, 4 mM L-glutamine, pyruvate, 1250 U sodium-heparin and 1% Penicillin/Streptomycin), incubated with the anti-inflammatory compound or solvent for 30-60 minutes and then stimulated with 20 ng/ml to 1 μg/ml LPS or SEB for 3 to 48 hours. Supernatants were harvested and analysed for cytokine content, e.g. by ELISA.

TNFα = assay: LPS in vivo assay (model of cytokine repression in vivo); design: species or system mice; settings: 30 mg/kg single p.o. dose 30 min prior to LPS; blood serum 90 min after LPS; ELISA; FIG. 3
Experimental: For the LPS induced model of septic shock, mice receive an intraperitoneal (i.p.) injection of 30 μg bacterial Lipopolysaccharide (LPS; L2630 SIGMA) in saline. Said LPS-mediated initiation of the inflammatory signalling cascade results in increasing blood serum concentrations of cytokines such as e.g. TNFα, IL-6 and IL1β. Blood can be taken from these animals at defined time points. Thereafter, serum will be separated and the samples can be stored at −80° C. until cytokine concentrations are measured using commercial ELISA assays. (A L Moreira et al., Braz J Med Biol Res 1997; 30:1199-1207).
Wildtype mice (strain C3HeB/FeJ) (age, sex and weight matched) were injected with 30 μg LPS (SIGMA) intraperitoneally. 90 minutes after LPS administration, these animals were anaesthetized with 0.1 ml/10 g bodyweight Ketamine-Rompun (50/20 mg/ml) and blood for serum preparation was taken via cardiac puncture.
Pharmacological treatment groups (n=4) of LPS mice received per os (p.o.) injections of CDK-inhibiting compounds or the vehicle (negative control), respectively. […]
Serum concentrations of TNF alpha and IL6 within the samples were measured by using commercial ELISA Kits (Natutec) according to the manufacturers instructions. […]

CDK9/CycT = biological target: T1, CDK9/CycT (Homo sapiens, UniProt P50750); assay: In vitro kinase inhibition assay; type: biochemical; settings: 1 μM ATP, 33P FlashPlate assay
T1 construct: host or cells: Sf9 insect cells, baculovirus
T1 sequence (P50750 whole entry): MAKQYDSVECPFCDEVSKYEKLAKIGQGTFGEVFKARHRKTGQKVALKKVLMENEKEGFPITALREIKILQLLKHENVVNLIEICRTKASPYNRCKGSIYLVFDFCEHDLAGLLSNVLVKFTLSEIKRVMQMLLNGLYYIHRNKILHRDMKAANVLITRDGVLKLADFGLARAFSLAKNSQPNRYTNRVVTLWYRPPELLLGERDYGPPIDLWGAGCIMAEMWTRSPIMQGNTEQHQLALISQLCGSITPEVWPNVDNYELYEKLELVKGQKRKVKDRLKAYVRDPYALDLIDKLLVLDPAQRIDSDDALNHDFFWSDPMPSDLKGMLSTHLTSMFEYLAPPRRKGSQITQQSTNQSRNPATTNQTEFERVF
T1 sequence (O60563 whole entry partner): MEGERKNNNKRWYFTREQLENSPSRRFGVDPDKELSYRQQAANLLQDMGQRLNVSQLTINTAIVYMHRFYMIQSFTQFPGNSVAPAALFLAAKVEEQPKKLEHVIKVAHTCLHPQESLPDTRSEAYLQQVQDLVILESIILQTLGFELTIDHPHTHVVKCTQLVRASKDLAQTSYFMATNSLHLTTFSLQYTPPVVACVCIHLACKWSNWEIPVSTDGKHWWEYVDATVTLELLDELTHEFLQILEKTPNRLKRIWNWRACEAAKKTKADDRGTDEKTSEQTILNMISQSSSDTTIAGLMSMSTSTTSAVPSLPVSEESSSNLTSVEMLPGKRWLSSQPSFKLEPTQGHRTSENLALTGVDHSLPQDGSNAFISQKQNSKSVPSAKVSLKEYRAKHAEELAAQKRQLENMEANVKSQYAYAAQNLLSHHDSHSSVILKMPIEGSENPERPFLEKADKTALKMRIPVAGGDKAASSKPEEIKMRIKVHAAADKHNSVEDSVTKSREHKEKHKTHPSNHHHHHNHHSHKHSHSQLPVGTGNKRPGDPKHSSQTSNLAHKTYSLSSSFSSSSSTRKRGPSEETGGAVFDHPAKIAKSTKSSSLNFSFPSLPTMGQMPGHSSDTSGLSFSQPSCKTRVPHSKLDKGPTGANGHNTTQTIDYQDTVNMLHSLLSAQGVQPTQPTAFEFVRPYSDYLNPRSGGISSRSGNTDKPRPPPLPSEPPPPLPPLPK
Experimental: IC50 profiles of the compounds according to general Formula I or Ia of the present invention can be determined for cyclin-dependent kinases CDK2/CycA, CDK4/CycD1, CDK6/CycD1 and CDK9/CycT in enzymatic kinase inhibition assays in vitro. IC50 values as obtained in these assays are used for evaluating the specific selectivity and potency of the compounds with respect to CDK9 inhibition.
Compounds are used as 1×10^−2 M stock solutions in 100% DMSO, 100 μl each in column 2 of three 96-well V-shaped microtiterplates (in the following, said plates are referred to as “master plates”). […]
For the determination of inhibitory profiles, the following 4 protein kinases are used: CDK2/CycA, CDK4/CycD1, CDK6/CycD1 and CDK9/CycT. […] The purity of each kinase is determined by SDS-PAGE/silver staining and the identity of each kinase is verified by western blot analysis with kinase specific antibodies or by mass spectroscopy. […]
Reaction mixtures are incubated at 30° C. for 80 minutes. […] Incorporation of ^33P is determined with a microplate scintillation counter (Microbeta, Wallac).
The median value of the counts in column 1 (n=8) of each assay plate is defined as “low control”. This value reflects unspecific binding of radioactivity to the plate in the absence of a protein kinase but in the presence of the substrate. […]

[1] = tested on: LPS induced THP-1 macrophages; assay: In vitro THP-1 assay (LPS-induced cytokine expression); type: cell-based, human
Experimental: The human THP-1 cell line can be utilized as an in vitro model of cytokine expression as mediated by Lipopolysaccharide (LPS) or Tumor Necrosis Factorα [TNFα].
Monocytic THP-1 cells (ATCC; TIB-202) can be differentiated into macrophage-like cells expressing pro-inflammatory cytokines like TNFα, IL6 and IL10 upon induction with LPS or by TNFα (autocrine induction) itself.
THP-1 cells are grown in modified RPMI-1640 medium (ATCC, Cat. No. 30-2001) supplemented with 10% FCS and 1% Pen/Strep. For cytokine inhibition assays, cells are seeded at a density of 5×10^5 cells/ml into 6-well plates in standard growth medium supplemented with 100 ng/ml PMA (Sigma, P1585) to induce differentiation into macrophage-like cells. After 24 hours, the medium is replaced with standard growth medium (without PMA) and the cells are incubated for another 48 hours to complete differentiation.
After 72 h of differentiation, the medium is replaced with serum free growth medium, and CDK-inhibiting compounds as well as reference compounds such as positive and negative controls, each dissolved in DMSO are added at concentrations ranging from 0.5 to 5 μM (final concentration of DMSO in the well is 0.1%). Cells are incubated for 60 min with compounds prior to stimulation with 100 ng/ml LPS (Sigma, L2630) for another 4-48 hours. Supernatants are collected and assayed immediately for cytokine expression, e.g. for TNFα, IL-6 and IL-1β using commercially available sandwich ELISA assays (eBioscience, Cat. No 88-7346, 88-7066, 88-7010) or kept frozen at […] until evaluation.
Concentrations of TNFα, IL6 and IL1β within the cell culture supernatants are measured by using commercial ELISA Kits (eBioscience) according to the manufacturer's instructions.
Compound #133 was administered to differentiated THP-1 cells in triplicates as described above (see section 2.). After 60 min of pre-incubation with test or reference compound (a p38 inhibitor and an IKK-inhibitor, respectively) alone, cells were stimulated with LPS. […]

In the case of `CC[C@H](CO)Nc1nc(NCc2ccccc2)c2ncn(C(C)C)c2n1` [roscovitine], the “inhibitory activity against CDKs 4 and 6” value (CDKs) is listed as “no inhibitory activity” and the “selectivity for a specific CDK” value (CDKs) is listed as “greater selectivity for CDKs 1, 2 and 5”.

With `COc1ccccc1-c1ccnc(Nc2cccc(S(C)(=O)=O)c2)n1` [Compound #133] the “TNF α levels reduced” value (TNF α; 0.3 μM) was 15%, the “TNF α levels reduced” value (TNF α; 3 μM) was 60% and the “TNF α levels reduced” value (TNF α; 10 μM) was 85%. The “TNF α levels reduced” value (TNF α; 30 μM) was 94%, the IC50 (TNF α; Homo sapiens, deduced from the % reduction data) was less than 3000 nM and the “reduction of LPS-induced TNFα level (signalα signal) compared to the DMSO vehicle control” value (TNFα) was 50%. For the same molecule, the IC50 (CDK9/CycT) was 37.6 nM, the “signalα signal compared to the DMSO (vehicle control)” value ([1]; at each concentration, FIG. 4) was “significantly reduced” and the “effect on TNFα and IL6 protein concentration in the cell supernatant versus vehicle (DMSO)” value ([1]; differentiated THP-1 cells, 60 min pre-incubation, LPS 4-48 h) was “significant inhibitory effect”. For the same molecule, the “reduction of LPS-induced cytokine levels (TNFα, IL6, IL1β)” value ([1]; differentiated THP-1 cells, LPS 100 ng/ml, supernatant ELISA, FIG. 4) was “up to 100%”.

In the case of purvanolols, the “inhibitory activity against CDKs 4 and 6” value (CDKs) is listed as “no inhibitory activity” and the “selectivity for a specific CDK” value (CDKs) is listed as “greater selectivity for CDKs 1, 2 and 5”.

In the case of `CN1CC[C@H](c2c(O)cc(O)c3c(=O)cc(-c4ccccc4Cl)oc23)[C@H](O)C1` [Flavopiridol], the “selectivity for a specific CDK” value (CDKs) is listed as “not particularly selective for a specific CDK”.

In the case of `CCn1cnc2c(Nc3cccc(Cl)c3)nc(N[C@@H]3CCCC[C@@H]3N)nc21` [CGP74514A], the “inhibitory activity against CDKs 4 and 6” value (CDKs) is listed as “no inhibitory activity” and the “selectivity for a specific CDK” value (CDKs) is listed as “greater selectivity for CDKs 1, 2 and 5”.
